Source: US7223888B2, “Mu opioid receptor ligands: methods of use and synthesis” (President and Fellows of Harvard College, priority 2002, dated 2007)

Experiments:
[1] = target: T1, KOR (Cavia porcellus, UniProt P41144); assay: Opioid receptor competitive binding assay, KOR (3H-U-69,593); design: species or system guinea pig; details: for Ki: Ki KOR, Table 10, 3H-U-69,593, guinea pig cerebellum preparation, errors two standard deviations; for Ki KOR/Ki MOR: Table 13, selectivity for MOR versus KOR
T1 construct: from tissue; host or cells: guinea pig cerebellum preparation
Method: (§1) For selected compounds, Ki for MOR, DOR, and KOR were determined according to the following procedure: Recombinant hMOR-1 membrane preps from stably transfected CHO cells and recombinant hDOR-1 membrane preps from stably transfected HEK-293 cells were purchased from Amersham Biosciences. Guinea pig cerebellum preparations were used for KOR assays.
(§2) Each microassay from an assay plate was filtered through an individual well of a Packard GF/B 96-well filter plate (glass fiber filter) to collect the membranes. Each well was washed twice with 200 μL of ice cold wash buffer (50 mM Tris, pH 7.4). The filter plate was allowed to dry overnight, the back was sealed, and Packard Bioscience Microscint PS scintillation fluid (75 μL) was added to each well, which was then counted for ^3H for 2 minutes using a Packard Bioscience TopCount scintillation counter plate reader.
(§3) Each compound was assayed at 8 concentrations, using half-log serial dilutions. Each concentration was tested in triplicate, and the ^3H cpm were averaged.
(§4) This triplicate experiment was repeated three times for the MOR and twice for the DOR and the KOR.

[2] = target: T2, hMOR-1 (Homo sapiens, UniProt P35372); assay: Opioid receptor competitive binding assay, MOR (3H-DAMGO); details: Ki MOR, Table 4; 3H-DAMGO, hMOR-1 stably transfected into CHO cells; errors 95% confidence interval
T2 construct: purchased Amersham Biosciences; host or cells: stably transfected CHO cells (membrane preparation)
Method: as §1, §2, §3
(§5) This concentration was determined experimentally by scintillation counting an aliquot of the radioligand stock solution used in the assay.
(§6) Kd=the binding constant for the radioligand.
as §4

[3] = target: T2, hMOR-1; assay: MOR GTP-γ-S assay (MOR activation); format: biochemical; details: Table 15; compound 10 mM (footnote); percentage of DAMGO induced GTP-g-35S specific binding; CHO membranes with hMOR-1
Method: MOR GTP-γ-S assay was run in the same 200 μL, 96 well format as the binding assay. Each microassay contained experimental compound, 0.04 nM GTP-γ-^35S, 9 μM GDP, and about 0.02 nM MOR (from stably transfected CHO cells), in assay buffer (50 mM Tris-HCl, 3 mM MgCl2, 0.2 mM EGTA, 100 mM NaCl, pH 7.4). The assays were incubated for two to three hours at room temperature, then filtered onto a filter plate. The plate was dried; scintillation fluid was added, and the wells were counted for ^35S. Blank assays were run to determine non-specific binding. […] The results were averaged; the non-specific counts were subtracted, and the resulting value was expressed as a percent of the value obtained for DAMGO. The error reported is two standard deviations from the mean of the quadruplicate experiment. The values were compared using one way Anova with Tukey's post-hoc analysis.

[4] = target: T3, hDOR-1 (Homo sapiens, UniProt P41143); assay: Opioid receptor competitive binding assay, DOR; details: for Ki: Ki DOR, Table 7, 3H-diprenorphine, hDOR-1 stably transfected into HEK-293 cells, errors two standard deviations; for Ki DOR/Ki MOR: Table 13, selectivity for MOR versus DOR (footnote: 3H-DPDPE, hDOR-1)
T3 construct: purchased Amersham Biosciences; host or cells: stably transfected HEK-293 cells (membrane preparation)
Method: as §1, §2, §3, §5, §6, §4

Compound | Ki [1] | Ki KOR/Ki MOR [1] | Ki [2] | % GTP-γ-35S bound [3] | Ki [4] | Ki DOR/Ki MOR [4]
Cc1cc(O)cc(C)c1CC(N)C(O)C/C=C/C(O)C(Cc1ccccc1)C(=O)NC(Cc1ccccc1)C(N)=O (single isomer, unassigned) [(S,S,R,S)-25, 7-(1-Carbamoyl-2-phenyl-ethylcarbamoyl)-2,6-dihydroxy-1-(4-hydroxy-2,6-dimethyl-benzyl)-8-phenyl-oct-4-enyl-ammonium] | 50 ± 16 nM | 41 | 1.2 ± 0.4 nM | 32 ± 5% | 230 ± 20 nM | 190
Cc1cc(O)cc(C)c1CC(N)C(O)C/C=C/C(O)C(Cc1ccccc1)C(=O)NCCc1ccccc1 (single isomer, unassigned) [(S,S,R,S)-26, 2,6-Dihydroxy-1-(4-hydroxy-2,6-dimethyl-benzyl)-7-phenethylcarbamoyl-8-phenyl-oct-4-enyl-ammonium] | 60 ± 32 nM | 94 | 0.64 ± 0.09 nM | 52 ± 6% | 120 ± 30 nM | 190
Cc1cc(O)cc(C)c1CC(N)C(O)C/C=C/C(O)C(Cc1ccccc1)C(=O)NC(Cc1ccccc1)C(N)=O (single isomer, unassigned) [(S,S,S,R)-25, 7-(1-Carbamoyl-2-phenyl-ethylcarbamoyl)-2,6-dihydroxy-1-(4-hydroxy-2,6-dimethyl-benzyl)-8-phenyl-oct-4-enyl-ammonium] | 22 ± 9 nM | 130 | 0.17 ± 0.07 nM | 35 ± 5% | 40 ± 1 nM | 230
Cc1cc(O)cc(C)c1CC(N)C(O)C/C=C/C(O)C(Cc1ccccc1)C(=O)NCCc1ccccc1 (single isomer, unassigned) [(S,S,S,R)-26, 2,6-Dihydroxy-1-(4-hydroxy-2,6-dimethyl-benzyl)-7-phenethylcarbamoyl-8-phenyl-oct-4-enyl-ammonium] | 42 ± 29 nM | 140 | 0.29 ± 0.06 nM | 40 ± 3% | 99 ± 11 nM | 340
Cc1cc(O)cc(C)c1CC(N)C(O)C/C=C/C(O)C(Cc1ccccc1)C(=O)NC(CO)Cc1ccccc1 [(S,S,S,R)-27] | 69 ± 14 nM | – | 0.16 ± 0.06 nM | 44 ± 6% | 54 ± 8 nM | –
Cc1cc(O)cc(C)c1CC(N)C(O)C/C=C/C(O)C(Cc1ccccc1)C(=O)OC(CO)Cc1ccccc1 [(S,S,S,R)-30, 7-(1-Benzyl-2-hydroxy-ethoxycarbonyl)-2,6-dihydroxy-1-(4-hydroxy-2,6-dimethyl-benzyl)-8-phenyl-oct-4-enyl-ammonium] | 85 ± 1 nM | 190 | 0.44 ± 0.01 nM | 62 ± 4% | 17 ± 6 nM | 39
